Earlier results as cited in patent publication US5744472A, “1-(N'-(arylalkylaminoalkyl)) aminoisoindoles; a new class of dopamine receptor subtype specific ligands” (Neurogen Corporation, priority 1995, dated 1998).
Read-outs that look alike come from different tables or passages of the source.

Key:
[1] = test system: extrapyramidal side effects (EPS)
[2] = test system: D2 receptors; settings: background statement
[3] = test system: D1 dopamine receptor; settings: background statement

## CCN1CCCC1CNC(=O)c1cc(S(N)(=O)=O)ccc1OC (stereo not shown) [sulpiride]
[1]; in vivo
  incidence of extrapyramidal side effects: lesser incidence of extrapyramidal side effects (EPS) than classical neuroleptics

## CN1CCN(C2=Nc3cc(Cl)ccc3Nc3ccccc32)CC1 [clozapine]
[1]; compared with classical neuroleptics, background statement
  incidence of extrapyramidal side effects: lesser incidence of extrapyramidal side effects (EPS) than classical neuroleptics

## O=C(CCCN1CCC(O)(c2ccc(Cl)cc2)CC1)c1ccc(F)cc1 [haloperidol]
[2]
  binding affinity at D2 receptors: subnanomolar range
[3]
  binding at the D1 dopamine receptor: binds relatively weakly
